Molecular target: PCSK9 (Homo sapiens, UniProt Q8NBP7)
Test: BODIPY-LDL uptake assay in HepG2 cells
Format: cell-based
Settings: 5 μg/ml PCSK9, BODIPY-LDL
Outline: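 Compounds pre-incubated 60 min with 5 μg/ml PCSK9 (0.2% DMSO), then added to HepG2 cells for 16 h; 1 μg/ml BODIPY-LDL added in serum-free medium for 5 h. Fluorescence (Ex 485/Em 520 nm) normalized to protein; PCSK9-only wells = 0%, no-PCSK9 wells = 100% uptake, giving percent increase in LDL uptake.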

PCSK9, sequence (Q8NBP7 153-692): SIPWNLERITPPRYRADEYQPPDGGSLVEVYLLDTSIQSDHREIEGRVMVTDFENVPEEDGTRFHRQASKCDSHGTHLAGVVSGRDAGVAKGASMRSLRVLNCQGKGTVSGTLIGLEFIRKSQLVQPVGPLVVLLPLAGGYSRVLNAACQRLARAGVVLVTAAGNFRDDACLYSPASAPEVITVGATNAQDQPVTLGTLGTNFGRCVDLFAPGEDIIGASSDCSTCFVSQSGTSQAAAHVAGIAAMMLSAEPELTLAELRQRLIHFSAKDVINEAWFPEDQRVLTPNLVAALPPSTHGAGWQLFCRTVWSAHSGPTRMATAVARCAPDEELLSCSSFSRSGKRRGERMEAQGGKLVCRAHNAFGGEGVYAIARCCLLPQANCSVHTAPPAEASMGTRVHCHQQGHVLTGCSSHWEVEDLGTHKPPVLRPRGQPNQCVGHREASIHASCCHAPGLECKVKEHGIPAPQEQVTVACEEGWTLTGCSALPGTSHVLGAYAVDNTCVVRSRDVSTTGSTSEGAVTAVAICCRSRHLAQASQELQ

Row | Structure (SMILES) | % increase in LDL Uptake (1 μM test compound) | % increase in LDL Uptake (10 μM test compound) | % increase in LDL Uptake (30 μM test compound)
1 | COc1ccc(C2CCN(C(=O)c3ccc(C4(O)COC4)cc3)CC2)cc1Cl [Example 26, (4-(3-chloro-4-methoxyphenyl)piperidin-1-yl)(4-(3-hydroxyoxetan-3-yl)phenyl)methanone] | 15% | 21% | 33%
2 | O=C(c1ccc(C2(O)COC2)cc1)N1Cc2cn(-c3ccc(C(F)(F)F)cc3)nc2C1 [Example 89, (4-(3-hydroxyoxetan-3-yl)phenyl)(2-(4-(trifluoromethyl)phenyl)-2,6-dihydropyrrolo[3,4-c]pyrazol-5(4H)-yl)methanone] | 0% | 5% | 159%
3 | COC1(c2ccc(C(=O)N3CC4CN(c5ccc(C(F)(F)F)cn5)CC4C3)cc2)COC1 (stereo not drawn) [Example 209, (4-(3-methoxyoxetan-3-yl)phenyl)(5-(5-(trifluoromethyl)pyridin-2-yl)hexahydropyrrolo[3,4-c]pyrrol-2(1H)-yl)methanone] | 20% | 137% | 21%
4 | O=C(c1ccc(C2(O)COC2)cc1)N1Cc2cn(-c3ccc(C(F)(F)F)cc3)cc2C1 [Example 93, (4-(3-hydroxyoxetan-3-yl)phenyl)(5-(4-(trifluoromethyl)phenyl)-3,5-dihydropyrrolo[3,4-c]pyrrol-2(1H)-yl)methanone] | 0% | 90% | 144%
5 | COC1(c2cccc(C(=O)N3CC4=C(C3)CN(c3ccc(C(F)(F)F)cc3)C4)c2)COC1 [Example 97, (3-(3-methoxyoxetan-3-yl)phenyl)(5-(4-(trifluoromethyl)phenyl)-3,4,5,6-tetrahydropyrrolo[3,4-c]pyrrol-2(1H)-yl)methanone] | 0% | 0% | 24%
6 | O=C(c1cccc(C2(O)COC2)c1)N1CCC2(CC1)CCN(c1ccc(C(F)(F)F)cc1)CC2 [Example 100, (3-(3-hydroxyoxetan-3-yl)phenyl)(9-(4-(trifluoromethyl)phenyl)-3,9-diazaspiro[5.5]undecan-3-yl)methanone] | 29% | 0% | 0%
7 | O=C(c1cccc(C2(O)COC2)c1)N1CCC(c2ccccc2C(F)(F)F)CC1 [Example 122, (3-(3-hydroxyoxetan-3-yl)phenyl)(4-(2-(trifluoromethyl)phenyl)piperidin-1-yl)methanone] | 0% | 16% | 12%
8 | O=C(c1ccc(C2(OCCO)COC2)cc1)N1CCC(c2ccc(C(F)(F)F)cc2)CC1 [Example 188, (4-(3-(2-hydroxyethoxy)oxetan-3-yl)phenyl)(4-(4-(trifluoromethyl)phenyl)piperidin-1-yl)methanone] | 0% | 152% | 136%
9 | O=C(c1ccc(C2(O)COC2)cc1)N1CCC(c2ccc(C(F)(F)F)cn2)CC1 [Example 212, (4-(3-hydroxyoxetan-3-yl)phenyl)(4-(5-(trifluoromethyl)pyridin-2-yl)piperidin-1-yl)methanone] | 8% | 4% | 48%
10 | O=C(c1ccc(C2(O)CCNCC2)cc1)N1CCC(c2ccc(C(F)(F)F)cc2)CC1 [Example 141, (4-(4-hydroxypiperidin-4-yl)phenyl)(4-(4-(trifluoromethyl)phenyl)piperidin-1-yl)methanone] | 0% | 0% | 28%
11 | COc1cc(C2CN(c3ccc(C(F)(F)F)cc3)CCN2C(=O)c2ccc(C3(O)COC3)cc2)ccn1 (stereo not drawn) [Example 67, (4-(3-hydroxyoxetan-3-yl)phenyl)(2-(2-methoxypyridin-4-yl)-4-(4-(trifluoromethyl)phenyl)piperazin-1-yl)methanone] | 26% | 27% | 11%
12 | Cc1ccc(C2CCN(C(=O)c3ccc(C4(O)COC4)cc3)CC2)cc1Cl [Example 29, (4-(3-chloro-4-methylphenyl)piperidin-1-yl)(4-(3-hydroxyoxetan-3-yl)phenyl)methanone] | 0% | 17% | 49%
13 | CC(=O)OC1(c2ccc(C(=O)N3CCC(c4ccc(C(F)(F)F)cc4)CC3)cc2)COC1 [Example 36, 3-(4-(4-(4-(trifluoromethyl)phenyl)piperidine-1-carbonyl)phenyl) oxetan-3-yl acetate] | 0% | 9% | 17%
14 | COC1(c2ccc(C(=O)N3CCC(c4cccc(C(F)(F)F)c4)CC3)cc2)COC1 [Example 37, (4-(3-methoxyoxetan-3-yl)phenyl)(4-(3-(trifluoromethyl)phenyl)piperidin-1-yl)methanone] | 31% | 65% | 36%
15 | O=C(c1ccc(C2(O)CS(=O)(=O)C2)cc1)N1CC2CN(c3ccc(C(F)(F)F)cc3)CC2C1 (stereo not drawn) [Example 61, (4-(3-hydroxy-1,1-dioxidothietan-3-yl)phenyl)(5-(4-(trifluoromethyl)phenyl)hexahydropyrrolo[3,4-c]pyrrol-2(1H)-yl)methanone] | 13% | 32% | 37%
16 | O=C(c1ccc(C2(OCC3CC3)COC2)cc1)N1CC2CN(c3ccc(C(F)(F)F)cc3)CC2C1 (stereo not drawn) [Example 133, (4-(3-(cyclopropylmethoxy)oxetan-3-yl)phenyl)(5-(4-(trifluoromethyl)phenyl)hexahydropyrrolo[3,4-c]pyrrol-2(1H)-yl)methanone] | 22% | 28% | 32%
17 | O=C(O)c1cc(C2(O)COC2)ccc1N1CCC(c2ccc(C(F)(F)F)cc2)CC1 [Example 77, 5-(3-hydroxyoxetan-3-yl)-2-(4-(4-(trifluoromethyl)phenyl)piperidin-1-yl)benzoic acid] | 0% | 13% | 37%
18 | COC1(c2ccc(C(=O)N3CCC(c4ccc(C(F)(F)F)cc4)CC3)cc2)CCOCC1 [Example 143, (4-(4-methoxytetrahydro-2H-pyran-4-yl)phenyl)(4-(4-(trifluoromethyl)phenyl)piperidin-1-yl)methanone] | 0% | 41% | 28%
19 | O=C(c1ccc(C2(O)COC2)cc1)N1CCC(c2ccc(C(F)F)cc2)CC1 [Example 69, (4-(4-(difluoromethyl)phenyl)piperidin-1-yl)(4-(3-hydroxyoxetan-3-yl)phenyl)methanone] | 0% | 0% | 76%
20 | O=C(c1ccc(C2(O)CCNC2)cc1)N1CCC(c2ccc(C(F)(F)F)cc2)CC1 (stereo not drawn) [Example 152, (4-(3-hydroxypyrrolidin-3-yl)phenyl)(4-(4-(trifluoromethyl)phenyl)piperidin-1-yl)methanone] | 0% | 0% | 31%
21 | COc1ccc(C2CCN(C(=O)c3ccc(C4(O)COC4)cc3)CC2)cc1 [Example 27, (4-(3-hydroxyoxetan-3-yl)phenyl)(4-(4-methoxyphenyl)piperidin-1-yl)methanone] | 14% | 21% | 38%
22 | CCOC1(c2cccc(C(=O)N3CC4CN(c5ccc(C(F)(F)F)cc5)CC4C3)c2)COC1 (stereo not drawn) [Example 178, (3-(3-ethoxyoxetan-3-yl)phenyl)(5-(4-(trifluoromethyl)phenyl)hexahydropyrrolo[3,4-c]pyrrol-2(1H)-yl)methanone] | 0% | 51% | 47%
23 | O=C(c1ccc(C2(O)COC2)cc1)N1CCc2nc(-c3ccc(C(F)(F)F)cc3)sc2C1 [Example 175, (4-(3-hydroxyoxetan-3-yl)phenyl)(2-(4-(trifluoromethyl)phenyl)-6,7-dihydrothiazolo[5,4-c]pyridin-5(4H)-yl)methanone] | 17% | 0% | 0%
24 | COC1(c2cccc(C(=O)N3CCC(c4ccc(C(F)F)cc4)CC3)c2)COC1 [Example 65, (4-(4-(difluoromethyl)phenyl)piperidin-1-yl)(3-(3-methoxyoxetan-3-yl)phenyl)methanone] | 0% | 9% | 66%
